According to patent US9957271B2, “Substituted bicyclic aza-heterocycles and analogues as sirtuin modulators” (GlaxoSmithKline, LLC, priority 2012, dated 2018):

Target: T1, SIRT1 (Homo sapiens, UniProt Q96EB6)
T1 sequence (Q96EB6 1-747): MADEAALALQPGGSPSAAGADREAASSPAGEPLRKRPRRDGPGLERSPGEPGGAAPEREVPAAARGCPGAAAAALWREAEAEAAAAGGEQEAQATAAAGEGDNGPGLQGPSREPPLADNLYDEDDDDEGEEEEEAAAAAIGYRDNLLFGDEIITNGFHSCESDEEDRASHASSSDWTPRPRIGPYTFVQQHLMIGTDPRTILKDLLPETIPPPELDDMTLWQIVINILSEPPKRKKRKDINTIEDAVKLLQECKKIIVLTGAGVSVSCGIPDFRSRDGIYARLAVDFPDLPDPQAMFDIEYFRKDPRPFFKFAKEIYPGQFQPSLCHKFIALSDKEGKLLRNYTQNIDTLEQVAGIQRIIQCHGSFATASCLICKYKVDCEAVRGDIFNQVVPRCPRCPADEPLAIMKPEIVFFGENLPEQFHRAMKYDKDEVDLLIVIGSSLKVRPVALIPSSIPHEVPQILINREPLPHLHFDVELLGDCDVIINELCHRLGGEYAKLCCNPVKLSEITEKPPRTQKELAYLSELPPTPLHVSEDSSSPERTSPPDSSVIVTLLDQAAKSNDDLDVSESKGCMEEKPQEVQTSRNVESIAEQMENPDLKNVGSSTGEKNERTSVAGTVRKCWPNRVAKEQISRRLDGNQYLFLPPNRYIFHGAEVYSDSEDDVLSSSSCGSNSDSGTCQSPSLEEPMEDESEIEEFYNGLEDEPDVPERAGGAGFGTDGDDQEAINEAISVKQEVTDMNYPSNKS
Assay: TAMRA based mass spectrometry assay of SIRT1 activity
Format: biochemical
Conditions: TAMRA assay; for TAMRA EC1.5 (μM): concentration giving 150% activation of SIRT1; for Emax: percent maximum fold activation, read-out: TAMRA % Fold Act
In short: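 Recombinant N-terminal His-tagged human SIRT1 (10 nM, E. coli) incubated 25 min at 25 °C with 0.5 μM 5TMR-labelled p53-derived acetyl-peptide and 120 μM βNAD+ in Tris-acetate pH 8 buffer with DTT and 0.05% BSA, compound at varying concentrations. Stopped with formic acid; deacetylated peptide or OAADPR measured by mass spectrometry relative to DMSO controls.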

SMILES: Cc1nc2c(C)cc(-c3ccccc3C(F)(F)F)nn2c1C(=O)Nc1ccnc(C2CC2)n1 [Compound 732]
- TAMRA EC1.5 (μM): A (EC1.5<1 μM)
- Emax: ≥ 350%

SMILES: COCc1nccc(NC(=O)c2c(C)nc3c(C)cc(-c4ccccc4C(F)(F)F)nn23)n1 [Compound 733]
- TAMRA EC1.5 (μM): A (EC1.5<1 μM)
- Emax: ≥ 350%

SMILES: O=C(Nc1cnn2ccc(-c3ccccc3OC(F)(F)F)nc12)c1cnc(O)cn1 [Compound 735]
- TAMRA EC1.5 (μM): B (EC1.5 1-25 μM)
- Emax: ≥ 350%

SMILES: Cc1nc2c(N3CCOCC3)cc(-c3ccccc3C(F)(F)F)nn2c1C(=O)Nc1cccnn1 [Compound 738, 2-methyl-8-morpholino-N-(pyridazin-3-yl)-6-(2-(trifluoromethyl)phenyl)imidazo[1,2-b]pyridazine-3-carboxamide]
- TAMRA EC1.5 (μM): A (EC1.5<1 μM)
- Emax: ≥ 350%

SMILES: CCOc1ccc(NC(=O)c2c(C)nc3ccc(-c4ccccc4F)nn23)nn1 [Compound 741]
- TAMRA EC1.5 (μM): B (EC1.5 1-25 μM)
- Emax: < 350%

SMILES: CCOc1ccc(NC(=O)c2c(C)nc3ccc(-c4ccccc4Cl)nn23)nn1 [Compound 744]
- TAMRA EC1.5 (μM): A (EC1.5<1 μM)
- Emax: < 350%

SMILES: Cc1nc2c(OC[C@H]3COC(C)(C)O3)cc(-c3ccccc3C(F)(F)F)nn2c1C(=O)Nc1cccnn1 [Compound 745]
- TAMRA EC1.5 (μM): A (EC1.5<1 μM)
- Emax: ≥ 350%

SMILES: O=C(Nc1cnn2ccc(-c3ccccc3C(F)(F)F)nc12)c1ncccc1F [Compound 747]
- TAMRA EC1.5 (μM): A (EC1.5<1 μM)
- Emax: ≥ 350%

SMILES: Cc1cc(C)nc(C(=O)Nc2cnn3ccc(-c4ccccc4OC(F)(F)F)nc23)c1 [Compound 750]
- TAMRA EC1.5 (μM): A (EC1.5<1 μM)
- Emax: ≥ 350%

SMILES: COc1cccc(C(=O)Nc2cnn3ccc(-c4ccccc4OC(F)(F)F)nc23)n1 [Compound 751]
- TAMRA EC1.5 (μM): A (EC1.5<1 μM)
- Emax: ≥ 350%

SMILES: Cc1cnc(NC(=O)c2c(C)nn3ccc(-c4ccccc4C(F)(F)F)nc23)c(C)n1 [Compound 753]
- TAMRA EC1.5 (μM): B (EC1.5 1-25 μM)
- Emax: ≥ 350%

SMILES: Cc1scnc1C(=O)Nc1cnn2ccc(-c3ccccc3OC(F)(F)F)nc12 [Compound 756]
- TAMRA EC1.5 (μM): B (EC1.5 1-25 μM)
- Emax: ≥ 350%

SMILES: Cc1cc(C)nc(NC(=O)c2c(C)nc3ccc(-c4ccccc4OC[C@H](O)CO)nn23)c1 [Compound 757]
- TAMRA EC1.5 (μM): B (EC1.5 1-25 μM)
- Emax: ≥ 350%

SMILES: COc1ccc(NC(=O)c2c(C)nc3ccc(-c4cccc(C)c4)nn23)nn1 [Compound 759]
- TAMRA EC1.5 (μM): A (EC1.5<1 μM)
- Emax: < 350%

SMILES: CCOc1ccc(NC(=O)c2c(C)nc3ccc(-c4cccc(C)c4)nn23)nn1 [Compound 760]
- TAMRA EC1.5 (μM): A (EC1.5<1 μM)
- Emax: < 350%

SMILES: CCOc1ccc(NC(=O)c2c(C)nc3ccc(-c4cccc(F)c4)nn23)nn1 [Compound 762]
- TAMRA EC1.5 (μM): B (EC1.5 1-25 μM)
- Emax: < 350%

SMILES: Cc1nc2ccc(-c3ccccc3Br)nn2c1C(=O)Nc1cccnn1 [Compound 763]
- TAMRA EC1.5 (μM): A (EC1.5<1 μM)
- Emax: ≥ 350%

SMILES: Cc1ccc(NC(=O)c2c(C)nc3ccc(-c4ccccc4Br)nn23)nn1 [Compound 764]
- TAMRA EC1.5 (μM): A (EC1.5<1 μM)
- Emax: ≥ 350%

SMILES: COc1ccc(NC(=O)c2c(C)nc3ccc(-c4ccccc4Br)nn23)nn1 [Compound 765]
- TAMRA EC1.5 (μM): A (EC1.5<1 μM)
- Emax: ≥ 350%

SMILES: Cc1nn2ccc(-c3ccccc3C(F)(F)F)nc2c1C(=O)Nc1cncc(F)c1 [Compound 768]
- TAMRA EC1.5 (μM): A (EC1.5<1 μM)
- Emax: ≥ 350%

SMILES: O=C(Nc1cnn2ccc(-c3ccccc3OC(F)(F)F)nc12)c1cccc(-n2cnnc2)n1 [Compound 769]
- TAMRA EC1.5 (μM): A (EC1.5<1 μM)
- Emax: ≥ 350%

SMILES: CC(C)c1csc(C(=O)Nc2cnn3ccc(-c4ccccc4OC(F)(F)F)nc23)n1 [Compound 771]
- TAMRA EC1.5 (μM): A (EC1.5<1 μM)
- Emax: ≥ 350%

SMILES: Cc1nc2ccc(-c3ccccc3OC[C@H](O)CO)nn2c1C(=O)Nc1ccncn1 [Compound 774]
- TAMRA EC1.5 (μM): A (EC1.5<1 μM)
- Emax: < 350%

SMILES: Cc1nc2ccc(-c3ccccc3OC[C@H](O)CO)nn2c1C(=O)Nc1cnccn1 [Compound 775]
- TAMRA EC1.5 (μM): A (EC1.5<1 μM)
- Emax: ≥ 350%

SMILES: Cc1cc(C)nc(NC(=O)c2c(C)nn3ccc(-c4ccccc4C(F)(F)F)nc23)n1 [Compound 777]
- TAMRA EC1.5 (μM): A (EC1.5<1 μM)
- Emax: ≥ 350%

SMILES: O=C(Nc1cnn2ccc(-c3ccccc3OC(F)(F)F)nc12)c1nc2c(s1)CCCC2 [Compound 780]
- TAMRA EC1.5 (μM): A (EC1.5<1 μM)
- Emax: ≥ 350%

SMILES: O=C(Nc1cnn2ccc(-c3ccccc3OC(F)(F)F)nc12)c1nccs1 [Compound 781]
- TAMRA EC1.5 (μM): B (EC1.5 1-25 μM)
- Emax: ≥ 350%

SMILES: O=C(Nc1cnn2ccc(-c3ccccc3C(F)(F)F)nc12)c1cncc(OC[C@@H](O)CO)n1 [Compound 783]
- TAMRA EC1.5 (μM): A (EC1.5<1 μM)
- Emax: ≥ 350%

SMILES: CCOc1nccc(NC(=O)c2c(C)nn3ccc(-c4ccccc4C(F)(F)F)nc23)n1 [Compound 786]
- TAMRA EC1.5 (μM): A (EC1.5<1 μM)
- Emax: ≥ 350%

SMILES: Cc1cc(NC(=O)c2c(C)nn3ccc(-c4ccccc4C(F)(F)F)nc23)nc(C)n1 [Compound 787]
- TAMRA EC1.5 (μM): A (EC1.5<1 μM)
- Emax: ≥ 350%

SMILES: Cc1nn2ccc(-c3ccccc3C(F)(F)F)nc2c1C(=O)Nc1ccncc1F [Compound 789]
- TAMRA EC1.5 (μM): A (EC1.5<1 μM)
- Emax: ≥ 350%

SMILES: Cc1cc(C)nc(NC(=O)c2cnc3ccc(-c4ccccc4OC[C@H](O)CO)nn23)c1 [Compound 792]
- TAMRA EC1.5 (μM): A (EC1.5<1 μM)
- Emax: ≥ 350%

SMILES: COc1nccc(NC(=O)c2c(C)nn3ccc(-c4ccccc4C(F)(F)F)nc23)n1 [Compound 793, N-(2-methoxypyrimidin-4-yl)-2-methyl-5-(2-(trifluoromethyl)phenyl)pyrazolo[1,5-a]pyrimidine-3-carboxamide]
- TAMRA EC1.5 (μM): A (EC1.5<1 μM)
- Emax: ≥ 350%

SMILES: Cc1cc(C(=O)Nc2cnn3ccc(-c4ccccc4C(F)(F)F)nc23)nc(C)n1 [Compound 795]
- TAMRA EC1.5 (μM): A (EC1.5<1 μM)
- Emax: ≥ 350%

SMILES: Cc1ccnc(NC(=O)c2c(C)nc3ccc(-c4cccc(OC[C@H](O)CO)c4)nn23)c1 [Compound 798]
- TAMRA EC1.5 (μM): A (EC1.5<1 μM)
- Emax: ≥ 350%

SMILES: Cc1cc(C)nc(C(=O)Nc2cnn3ccc(-c4ccccc4C(F)(F)F)nc23)n1 [Compound 801]
- TAMRA EC1.5 (μM): A (EC1.5<1 μM)
- Emax: ≥ 350%

SMILES: Cc1cccc(NC(=O)c2cnc3ccc(-c4ccccc4OC[C@H](O)CO)nn23)n1 [Compound 804]
- TAMRA EC1.5 (μM): A (EC1.5<1 μM)
- Emax: ≥ 350%

SMILES: Cc1cc(NC(=O)c2cnc3ccc(-c4ccccc4OC[C@H](O)CO)nn23)cc(C)n1 [Compound 805]
- TAMRA EC1.5 (μM): A (EC1.5<1 μM)
- Emax: ≥ 350%

SMILES: CCOc1nccc(NC(=O)c2cnn3ccc(-c4ccccc4C(F)(F)F)nc23)n1 [Compound 807]
- TAMRA EC1.5 (μM): A (EC1.5<1 μM)
- Emax: ≥ 350%

SMILES: O=C(Nc1cnn2ccc(-c3ccccc3C(F)(F)F)nc12)c1nc2c(s1)CCCC2 [Compound 810]
- TAMRA EC1.5 (μM): A (EC1.5<1 μM)
- Emax: ≥ 350%

SMILES: Cc1ccnc(NC(=O)c2cnc3ccc(-c4ccccc4OC[C@H](O)CO)nn23)c1 [Compound 811]
- TAMRA EC1.5 (μM): A (EC1.5<1 μM)
- Emax: ≥ 350%

SMILES: O=C(Nc1cc(O)ncn1)c1cnn2ccc(-c3ccccc3C(F)(F)F)nc12 [Compound 813]
- TAMRA EC1.5 (μM): A (EC1.5<1 μM)
- Emax: ≥ 350%
